Laboratory results: publication PMC4906958 (Journal of the American Chemical Society, 2016)

Key:
[1] = molecular target: T1, MelB of E. coli (MelBEc) (Escherichia coli, UniProt P02921); assay: Trp to D2G FRET, reversed by melibiose, in detergent extract; type: cell-based
[2] = molecular target: T1, MelB of E. coli (MelBEc); assay: melibiose reversal of Trp to D2G FRET in detergent extract; type: cell-based
[3] = molecular target: LeuT (leucine transporter) (Aquifex aeolicus, UniProt O67854); assay: radioligand binding by scintillation proximity assay

T1 sequence (P02921 2-473): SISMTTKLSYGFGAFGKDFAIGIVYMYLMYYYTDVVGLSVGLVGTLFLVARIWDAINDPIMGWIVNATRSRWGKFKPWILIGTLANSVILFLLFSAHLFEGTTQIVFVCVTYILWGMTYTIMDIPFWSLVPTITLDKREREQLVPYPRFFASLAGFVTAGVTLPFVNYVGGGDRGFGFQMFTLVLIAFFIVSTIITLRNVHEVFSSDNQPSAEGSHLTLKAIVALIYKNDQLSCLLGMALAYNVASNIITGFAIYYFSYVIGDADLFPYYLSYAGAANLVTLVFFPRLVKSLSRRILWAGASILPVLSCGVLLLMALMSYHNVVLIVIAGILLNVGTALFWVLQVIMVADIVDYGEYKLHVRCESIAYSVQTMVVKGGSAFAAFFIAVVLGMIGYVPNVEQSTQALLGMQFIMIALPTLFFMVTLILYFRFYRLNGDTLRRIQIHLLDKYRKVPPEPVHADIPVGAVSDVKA

## CN(C)c1cccc2c(S(=O)(=O)NCCS[C@@H]3O[C@H](CO)[C@H](O)[C@H](O)[C@H]3O)cccc12 [D2G, dansyl-2-galactoside]
[1]
  Trp to D2G FRET, reversed by melibiose, in detergent extract: Melibiose reversal of Trp to dansyl-2-galactoside (D^2G) FRET.

## OC[C@H]1O[C@H](OC[C@H]2OC(O)[C@H](O)[C@@H](O)[C@@H]2O)[C@H](O)[C@@H](O)[C@H]1O (stereo partly drawn) [melibiose]
[2]
  melibiose reversal of Trp to D2G FRET in detergent extract: MelBEc in PSE-C11 maintained the melibiose binding, which is similar to that observed for the protein in MNG-3

## CC(C)C[C@H](N)C(=O)O [leucine]
[3]
  radioligand binding by scintillation proximity assay (SPA): measuring the ability to bind a radio-labelled ligand ([^3H]-leucine) via scintillation proximity assay (SPA)
